Source: patent US10640457B2, “Histone acetyltransferase activators and uses thereof” (The Trustees of Columbia University in the City of New York, priority 2009, dated 2020)
Entries after “also recorded” stand apart in the source; their conditions may differ.

How the values were obtained:
APP/PS1 mice = assay: Contextual and cued fear conditioning in APP/PS1 mice (TSA); format: in vivo
Procedure: Following experiments on acute effect of TSA in synaptic dysfunction, we determined if TSA is beneficial against impairment of contextual FC in APP/PS1 mice[A17]. 4 month-old mice were divided into 4 groups: APP/PS1 with TSA, APP/PS1 with vehicle, WT with TSA and WT with vehicle. TSA and vehicle control solution were administered i.p. at a concentration of 2 μg/g body weight. We found a similar shock threshold among the various groups of mice. Then, mice were trained to associate neutral stimuli with an aversive one. They were placed in a novel context (FC box), exposed to a white noise cue paired with a mild foot shock, and injected with TSA 2 hrs before training Fear learning was assessed 24 hrs later by measuring freezing behavior—the absence of all movement except for that necessitated by breathing—in response to representation of the context. We found no difference in the freezing behavior among the 4 groups of mice during the training phase of the FC. 24 hrs later, freezing behavior was decreased in vehicle-treated APP/PS1 mice compared to vehicle-treated WT littermates in analyzing contextual learning (FIG. 18).
HDAC inhibition rescues the defect in associative memory in APP/PS1 mice. Similar to humans affected by AD [B51] […] (herein incorporated by reference in its entirety). In rodents, associative learning can be assessed by contextual fear conditioning. This behavioral task, which is based on the association of a neutral stimulus with an aversive one, is dependent on hippocampal function [B52] (herein incorporated by reference in its entirety). Thus, following experiments on acute effect of TSA in synaptic dysfunction, we determined if TSA is beneficial against impairment of contextual fear conditioning in 3-4 month old APP/PS1 mice [B14] (herein incorporated by reference in its entirety). Animals were divided into 4 groups: APP/PS1 with TSA, APP/PS1 with vehicle, WT with TSA and WT with vehicle. TSA and vehicle control solution were administered i.p. at a concentration of 2 mg/Kg body weight. We found a similar shock threshold among the various groups of mice. Then, mice were trained to associate neutral stimuli with an aversive one. They were placed in a novel context (fear conditioning box), exposed to a white noise cue paired with a mild foot shock, and injected with TSA 2 hrs before training. Fear learning was assessed 24 hrs later by measuring freezing behavior—the absence of all movement except for that necessitated by breathing—in response to representation of the context. We found no difference in the freezing behavior among the 4 groups of mice during the training phase of the fear conditioning (F3,47=0.02997, p=0.9929, n=12-13/group; FIG. 18). Twenty-four hours later, we found a decreased freezing behavior in vehicle-treated APP/PS1 mice compared to vehicle-treated WT littermates in the analysis of the contextual learning (F3,47=[…], p=0.0280, n=12-13/group; FIG. 18).
Freezing in vehicle-treated APP/PS1 mice was about 46% that of vehicle-treated WT mice [vehicle-treated APP/PS1 mice: 14.88±2.97% vs. vehicle-treated WT littermates: 31.68±5.32%; n=13 (11 females plus 2 males) and n=13 (11 females plus 2 males), respectively; t=2.76, p=0.0109; FIG. 18]. […] We next tested cued fear conditioning, a hippocampus-independent task [B46] […] (herein incorporated by reference in its entirety).

Aβ42-infused mice = assay: Contextual and cued fear conditioning in Aβ-infused mice (YF2); format: in vivo
Procedure: Contextual and cued fear conditioning was performed to assess whether the compound is capable of ameliorating amyloid-beta (Aβ) induced memory defect. Aβ is a peptide which is elevated in Alzheimer's disease. The hippocampus plays a key role in contextual memory and in Alzheimer's Disease. This type of cognitive test is much faster than other behavioral tasks that require multiple days of training and testing [Q1, Q2]; each herein incorporated by reference in its entirety. The conditioning chamber was in a sound-attenuating box. A clear Plexiglas window allowed the experimenter to film the mouse performance with a camera placed on a tripod and connected to the Freezeframe software (MED Ass. Inc.). To provide background white noise (72 dB), a single computer fan was installed in one of the sides of the sound-attenuating chamber. […] The floor was removable, and after each experimental subject, we cleaned it with 75% ethanol and then with water. Only one animal at a time was present in the experimentation room.
For the cued and contextual conditioning experiments, mice were placed in the conditioning chamber for 2 min before the onset of a discrete tone (CS) (a sound that lasted 30 sec at 2800 Hz and 85 dB). In the last 2 sec of the CS, mice were given a foot shock (US) of 0.8 mA for 2 sec through the bars of the floor. […] Freezing behavior, defined as the absence of all movement except for that necessitated by breathing, was scored using the Freezeview software.
To evaluate contextual fear learning, freezing was measured for 5 min (consecutively) in the chamber in which the mice was trained 24 hr after training. To evaluate cued fear learning, following contextual testing, the mice were placed in a novel context (triangular cage with smooth flat floor) for 2 min (pre-CS test), after which they were exposed to the CS for 3 min (CS test), and freezing was measured. Sensory perception of the shock was determined through threshold assessment. […] Initially, a […] shock was delivered for 1 sec, and the animal behavior was evaluated for flinching, jumping, and vocalization. […]

Row | Structure (SMILES) | contextual fear memory deficit in APP/PS1 mice (APP/PS1 mice; TSA i.p. 2 hrs before training) | freezing time relative to vehicle-treated APP/PS1 mice (APP/PS1 mice; TSA-treated APP/PS1 mice, 2 mg/Kg i.p.) | freezing, contextual fear conditioning 24 hrs after training (APP/PS1 mice; TSA-treated APP/PS1 mice, 2 mg/Kg i.p. 2 hrs before training) [%] | freezing, contextual fear conditioning 24 hrs after training (APP/PS1 mice; TSA-treated WT mice, 2 mg/Kg i.p.) [%] | cued fear conditioning, freezing among the 4 groups (APP/PS1 mice; pre-CS and CS) | contextual memory, compound alone (Aβ42-infused mice; 20 mg/kg i.p., no Aβ) | contextual fear memory deficit (freezing time) (Aβ42-infused mice; Aβ42-infused mice, i.p. 20 mg/kg 2 hrs or 5 mg/kg 30 min before the electric shock) | cued memory (Aβ42-infused mice; different groups (vehicle, YF2, Aβ, YF2 plus Aβ))
1 | CC(/C=C/C(=O)NO)=C\[C@@H](C)C(=O)c1ccc(N(C)C)cc1 [TSA, trichostatin A] | improved memory; also recorded: ameliorates | about 236.27% | 35.15±6.99 | 36.95±6.43 | did not find a difference | – | – | –
2 | CCOc1cccc(OCCN(C)C)c1C(=O)Nc1ccc(Cl)c(C(F)(F)F)c1 [YF2] | – | – | – | – | – | did not affect | ameliorated; also recorded: dramatically increasing | not changed
